Test results taken from patent US11413291B2, “Pesticidally active heterocyclic derivatives with sulfur containing substituents” (SYNGENTA PARTICIPATIONS AG, priority 2017, dated 2022).

Legend:
Format in all cases: in vivo
Spodoptera littoralis [1] = assay: Example B2: Spodoptera littoralis, systemic uptake via lettuce roots from agar; conditions: 144 h, test rate 12.5 ppm, 6 days after infestation, read-out: effect in at least one of the three categories (mortality, anti-feeding, or growth inhibition)
From the text: Test compounds were applied by pipette from 10′000 ppm DMSO stock solutions into 24-well plates and mixed with agar. Lettuce seeds were placed onto the agar and the multi well plate was closed by another plate which contained also agar. After 7 days the compound was absorbed by the roots and the lettuce grew into the lid plate. The lettuce leaves were then cut off into the lid plate. Spodoptera eggs were pipetted through a plastic stencil onto a humid gel blotting paper and the lid plate was closed with it. The samples were assessed for mortality, anti-feedant effect and growth inhibition in comparison to untreated samples 6 days after infestation.

Tetranychus urticae = assay: Example B10: Tetranychus urticae, sprayed bean leaf discs; conditions: foliar, 192 h, application rate 200 ppm, mixed population (mobile stages), 8 days after infestation
Method: Bean leaf discs on agar in 24-well microtiter plates were sprayed with aqueous test solutions prepared from 10,000 ppm DMSO stock solutions. After drying the leaf discs were infested with a mite population of mixed ages. The samples were assessed for mortality on mixed population (mobile stages) 8 days after infestation.

Diabrotica balteata = assay: Example B4: Diabrotica balteata, sprayed maize sprouts; conditions: 96 h, application rate 200 ppm, L2 larvae, 4 days after infestation, read-out: effect in at least one of the two categories (mortality or growth inhibition)
Method: Maize sprouts placed onto an agar layer in 24-well microtiter plates were treated with aqueous test solutions prepared from 10,000 ppm DMSO stock solutions by spraying. After drying, the plates were infested with L2 larvae (6 to 10 per well). The samples were assessed for mortality and growth inhibition in comparison to untreated samples 4 days after infestation.

Myzus persicae [2] = assay: Example B5: Myzus persicae feeding/contact, sprayed sunflower leaf discs; conditions: Myzus persicae, foliar, 144 h; application rate 200 ppm; mixed ages; 6 days after infestation
Method: Sunflower leaf discs were placed onto agar in a 24-well microtiter plate and sprayed with aqueous test solutions prepared from 10,000 ppm DMSO stock solutions. After drying, the leaf discs were infested with an aphid population of mixed ages. The samples were assessed for mortality 6 days after infestation.

Plutella xylostella = assay: Example B3: Plutella xylostella, artificial diet; conditions: 120 h, application rate 200 ppm, L2 larvae, 5 days after infestation, read-out: effect in at least one of the two categories (mortality or growth inhibition)
Method: 24-well microtiter plates with artificial diet were treated with aqueous test solutions prepared from 10,000 ppm DMSO stock solutions by pipetting. After drying, the plates were infested with L2 larvae (10 to 15 per well). The samples were assessed for mortality and growth inhibition in comparison to untreated samples 5 days after infestation.

Bemisia tabaci = assay: Example B7: Bemisia tabaci, sprayed cotton leaf discs; conditions: foliar, 144 h, application rate 200 ppm, adult white flies, 6 days after incubation
Method: Cotton leaf discs were placed on agar in 24-well microtiter plates and sprayed with aqueous test solutions prepared from 10,000 ppm DMSO stock solutions. After drying the leaf discs were infested with adult white flies. The samples were checked for mortality 6 days after incubation.

Myzus persicae [3] = assay: Example B6: Myzus persicae systemic, pea seedling roots in test solution; conditions: Myzus persicae, 144 h; test rate 24 ppm; mixed ages; 6 days
Method: Roots of pea seedlings infested with an aphid population of mixed ages were placed directly into aqueous test solutions prepared from 10,000 DMSO stock solutions. The samples were assessed for mortality 6 days after placing seedlings into test solutions.

Spodoptera littoralis [4] = assay: Example B1: Spodoptera littoralis, sprayed cotton leaf discs; conditions: foliar, 72 h, application rate 200 ppm, L1 larvae, 3 days after infestation
Method: Cotton leaf discs were placed onto agar in 24-well microtiter plates and sprayed with aqueous test solutions prepared from 10′000 ppm DMSO stock solutions. After drying the leaf discs were infested with five L1 larvae. The samples were assessed for mortality, anti-feeding effect, and growth inhibition in comparison to untreated samples 3 days after infestation. Control of Spodoptera littoralis by a test sample is given when at least one of the categories mortality, anti-feedant effect, and growth inhibition is higher than the untreated sample.

Euschistus heros = assay: Example B8: Euschistus heros, sprayed soybean leaves; conditions: Euschistus heros, 120 h; application rate 200 ppm; N2 nymphs; 5 days after infestation; read-out: effect in at least one of the two categories (mortality or growth inhibition)
Method: Soybean leaves on agar in 24-well microtiter plates were sprayed with aqueous test solutions prepared from 10,000 ppm DMSO stock solutions. After drying the leaves were infested with N2 nymphs. The samples were assessed for mortality and growth inhibition in comparison to untreated samples 5 days after infestation.

[5] = tested on: Frankliniella occidentalis; assay: Example B11: Frankliniella occidentalis, sprayed sunflower leaf discs; conditions: foliar, 168 h, application rate 200 ppm, mixed ages, 7 days after infestation
Method: Sunflower leaf discs were placed on agar in 24-well microtiter plates and sprayed with aqueous test solutions prepared from 10,000 DMSO stock solutions. After drying the leaf discs were infested with a Frankliniella population of mixed ages. The samples were assessed for mortality 7 days after infestation.

CCn1c(C(F)(F)F)cc2nc(-c3ncc(C(C)(C)C#N)cc3S(=O)(=O)CC)n(C)c2c1=O [Compound P3, 2-[6-[5-ethyl-3-methyl-4-oxo-6-(trifluoromethyl)imidazo[4,5-c]pyridin-2-yl]-5-ethylsulfonyl-3-pyridyl]-2-methyl-propanenitrile]
≥ 80%: percent effect (mortality, anti-feeding or growth inhibition) at 12.5 ppm (Spodoptera littoralis [1]) | mortality at 200 ppm (Tetranychus urticae) | percent effect (mortality or growth inhibition) at 200 ppm (Diabrotica balteata) | mortality at 200 ppm (Myzus persicae [2]) | percent effect (mortality or growth inhibition) at 200 ppm (Plutella xylostella) | mortality at 200 ppm (Bemisia tabaci) | mortality at 24 ppm (Myzus persicae [3]) | percent control (mortality, anti-feedant effect or growth inhibition) at 200 ppm (Spodoptera littoralis [4]) | percent effect (mortality or growth inhibition) at 200 ppm (Euschistus heros) | mortality at 200 ppm [5]

CCS(=O)(=O)c1cc(C(C)(C)C#N)cnc1-c1cn2ccc(C(F)(F)C(F)(F)F)cc2n1 [Compound P6, 2-[5-ethylsulfonyl-6-[7-(1,1,2,2,2-pentafluoroethyl)imidazo[1,2-a]pyridin-2-yl]-3-pyridyl]-2-methyl-propanenitrile]
≥ 80%: mortality at 200 ppm (Tetranychus urticae) | percent effect (mortality or growth inhibition) at 200 ppm (Diabrotica balteata) | mortality at 200 ppm (Myzus persicae [2]) | percent effect (mortality or growth inhibition) at 200 ppm (Plutella xylostella) | mortality at 200 ppm (Bemisia tabaci) | percent control (mortality, anti-feedant effect or growth inhibition) at 200 ppm (Spodoptera littoralis [4]) | mortality at 200 ppm [5]

CCS(=O)(=O)c1cc(C(C)(C)C#N)cnc1-c1nc2cc(C(F)(F)F)n(CC(F)(F)F)c(=O)c2n1C [Compound P11, 2-[5-ethylsulfonyl-6-[3-methyl-4-oxo-5-(2,2,2-trifluoroethyl)-6-(trifluoromethyl)imidazo[4,5-c]pyridin-2-yl]-3-pyridyl]-2-methyl-propanenitrile]
≥ 80%: percent effect (mortality or growth inhibition) at 200 ppm (Diabrotica balteata) | mortality at 200 ppm (Myzus persicae [2]) | percent effect (mortality or growth inhibition) at 200 ppm (Plutella xylostella) | mortality at 200 ppm (Bemisia tabaci) | percent control (mortality, anti-feedant effect or growth inhibition) at 200 ppm (Spodoptera littoralis [4]) | mortality at 200 ppm [5]

CCS(=O)(=O)c1cc(C(C)(C)C#N)ccc1-c1nc2cc(C(F)(F)F)n(C3CC3)c(=O)c2n1C [Compound P12, 2-[4-[5-cyclopropyl-3-methyl-4-oxo-6-(trifluoromethyl)imidazo[4,5-c]pyridin-2-yl]-3-ethylsulfonyl-phenyl]-2-methyl-propanenitrile]
≥ 80%: mortality at 200 ppm (Tetranychus urticae) | percent effect (mortality or growth inhibition) at 200 ppm (Diabrotica balteata) | mortality at 200 ppm (Myzus persicae [2]) | percent effect (mortality or growth inhibition) at 200 ppm (Plutella xylostella) | mortality at 200 ppm (Bemisia tabaci) | percent control (mortality, anti-feedant effect or growth inhibition) at 200 ppm (Spodoptera littoralis [4]) | mortality at 200 ppm [5]

CCS(=O)(=O)c1cc(C(C)(C)C#N)cnc1-c1nc2cc(C(F)(F)F)n(C3CC3)c(=O)c2n1C [Compound P17, 2-[6-[5-cyclopropyl-3-methyl-4-oxo-6-(trifluoromethyl)imidazo[4,5-c]pyridin-2-yl]-5-ethylsulfonyl-3-pyridyl]-2-methyl-propanenitrile]
≥ 80%: mortality at 200 ppm (Tetranychus urticae) | percent effect (mortality or growth inhibition) at 200 ppm (Diabrotica balteata) | mortality at 200 ppm (Myzus persicae [2]) | percent effect (mortality or growth inhibition) at 200 ppm (Plutella xylostella) | mortality at 200 ppm (Bemisia tabaci) | mortality at 24 ppm (Myzus persicae [3]) | percent control (mortality, anti-feedant effect or growth inhibition) at 200 ppm (Spodoptera littoralis [4]) | mortality at 200 ppm [5]
